Experiments:
[1] = tested on: rhythmic bladder contractions (RBC) in anesthetized female rats; assay: Isovolumetric model: rhythmic bladder contractions (RBC), cystometry; format: in vivo, rat; conditions: for Inhibition time: after i.v.; for RBC amplitude, basal / RBC frequency, basal: basal period −30/0 min before i.v. administration, group mean
Source text: In rats, under isovolumetric condition, bladder distension induced rhythmic bladder contractions (RBC) (Aizawa et al, (2015) Effects of L-arginine, mirabegron, and oxybutynin on the primary bladder afferent nerve activities synchronized with reflexic, rhythmic bladder contractions in the rat. Neurourology & Urodynamics 34:368-374). This isovolumetric model allows the evaluation of compound on RBC. It is a closed system where the bladder is slowly infused through a urethral catheter with saline until the occurrence of spontaneous rhythmic bladder contractions.
Test substance effects were compared to that of the reference substance, tolterodine, an […], marketed for overactive bladder in humans.
Protocol: • Animals were anesthetized with urethane (i.p.). • Ureters were ligated and sectioned close to the kidneys. • Intravesical catheter was inserted into the bladder though the urinary meatus. • Urinary meatus was closed. • A catheter was inserted into the jugular vein for compound administration. • Bladder was filled with saline until the occurrence of RBC. • After 30 min basal period, compounds were administered as described below. • The effect of the test substances was followed by 1-hour post administration.
Rats were anesthetized with an intraperitoneal administration of urethane (1 g/kg). The ureters were ligated and sectioned close to the kidneys. A catheter (0.30 and 0.70 mm of inner and outer diameters, respectively) was inserted through the urinary meatus into the bladder before urethral ligature. Another catheter (0.58 and 0.96 mm of inner and outer diameters, respectively) was inserted into the jugular vein for intravenous (i.v.) administration.
For all group, animals were treated by i.v. route (1 mL/kg) (slow bolus) after the basal period.
The vesical catheter was connected via a T-tube to a strain gauge (to measure intra-vesical pressure) and to a syringe. Isovolumetric bladder contractions were induced by stepwise injections of physiological saline at room temperature (100 μL every 5 min) until stable RBC occurred. Vesical pressure was continuously recorded. After a 30 min control period (basal values), substances or vehicle were i.v. administered. The effects of substances were followed during 60 min after administration. At the end of the experiments, animals were sacrificed by cervical dislocation.
The following parameters were analyzed: • Amplitude of RBC (mmHg) • Frequency of RBC (number/30 min) • Time of inhibition (sec)
The % variation from the basal values were calculated for RBC frequency and amplitude.
Statistical analysis and graphs were performed using GraphPad Prism® (GraphPad Software Inc., La Jolla, CA, USA). A p value <0.05 was accepted for statistical significance.

[2] = Phase 1 single-dose pharmacokinetics, mild renal impairment vs normal renal function; format: in vivo, human; conditions: single oral 1.0-mg immediate-release tablet
Experimental: This was a phase 1, nonrandomized, open-label, parallel-group, single-dose study. A total of 20 subjects (10 subjects with mild renal impairment and 10 healthy subjects with normal renal function) were studied.
At screening, subjects were assigned to a study group according to estimated glomerular filtration rate (eGFR), calculated using the 2021 Chronic Kidney Disease Collaboration (CKD-EPI 2021) formula as follows, in Table 11: […]
Subjects remained fasted for 4 hours after study drug dosing (except diabetic subjects, who were allowed a light breakfast at 2 hours after study drug dosing as judged by the investigator). Except as part of study drug administration, subjects restricted their consumption of water for 2 hours before dosing and for 2 hours after dosing. At all other times during the study, subjects were able to consume water ad libitum.

[3] = Urine concentrations in humans after a single oral dose; format: in vivo, human; conditions: LLOQ 229 nM
[4] = 0/60 min after i.v., Cpd (IA) 3 mg/kg (n=8), tolterodine 1 mg/kg, mean
[5] = 0/60 min after i.v., Cpd (IA) 3 mg/kg, tolterodine 1 mg/kg, mean
[6] = 0/60 min after i.v., Cpd (IA) 3 mg/kg, tolterodine 1 mg/kg, mean, listed as compound of formula (IA)
[7] = listed as compound of formula (IA)
[8] = i.v., Cpd (IA) 3 mg/kg, tolterodine 1 mg/kg, vs basal
[9] = i.v., Cpd (IA) 3 mg/kg, tolterodine 1 mg/kg, vs vehicle

O=C(O)c1nc2ccccc2n([C@H]2C[C@H]3CCC[C@@H](C2)N3C2CC3CCCC(C3)C2)c1=O (stereo partly shown) [Cpd (IA)]
RBC amplitude, % variation from basal [1, 4]: 1.25%
RBC amplitude, treated period [1, 4]: 27.57 mmHg
RBC frequency, % variation from basal [1, 5]: ~88.57%
RBC frequency, treated period [1, 5]: 3.05 nb of RBC/30 min
RBC frequency, % variation from basal [1, 6]: -88.57±3.68%
RBC frequency, treated period [1, 6]: 3.05±1.02 nb of RBC/30 min
Inhibition time ([1]; Cpd (IA) 3 mg/kg, tolterodine 1 mg/kg, mean): 2860.51 s
Inhibition time ([1]; Cpd (IA) 3 mg/kg, tolterodine 1 mg/kg, mean, listed as compound of formula (IA)): 2860.51 ± 272.38 s
RBC amplitude, basal [1]: 29.49 mmHg
RBC frequency, basal [1]: 25.90 nb of RBC/30 min
RBC amplitude, basal [1, 7]: 29.49±2.46 mmHg
RBC frequency, basal [1, 7]: 25.90±1.36 nb of RBC/30 min
bladder afferent activity ([1]; conclusion of Example 1): significantly decreased
RBC amplitude, effect versus basal [1, 8]: No significant effect
RBC frequency, effect versus basal [1, 8]: significantly decreased
RBC amplitude (% variation), effect versus vehicle [1, 9]: did not significantly modify
RBC frequency (% variation), effect versus vehicle [1, 9]: significantly decreased
time of inhibition, effect versus vehicle [1, 9]: significantly increased
plasma concentrations at 72 and 96 hours ([2]; all subjects): all below the limit of quantitation
plasma concentrations over time, mild renal impairment versus normal renal function ([2]; n=10 per group): comparable
Urine Conc., mean ([3]; single oral dose 0.2 mg, 16 to 24 h): BCL
Urine Conc., mean ([3]; single oral dose 0.2 mg, 24 to 32 h): BCL
Urine Conc., mean ([3]; single oral dose 0.2 mg, 32 to 40 h): BCL
Urine Conc., mean ([3]; single oral dose 0.2 mg, 40 to 48 h): BCL
Urine Conc., mean ([3]; single oral dose 0.6 mg, 16 to 24 h): BCL
Urine Conc., mean ([3]; single oral dose 0.6 mg, 24 to 32 h): BCL
Urine Conc., mean ([3]; single oral dose 0.6 mg, 32 to 40 h): BCL
Urine Conc., mean ([3]; single oral dose 0.6 mg, 40 to 48 h): BCL
Urine Conc., mean ([3]; single oral dose 2 mg, 16 to 24 h): 409 nM
Urine Conc., mean ([3]; single oral dose 2 mg, 24 to 32 h): BCL
Urine Conc., mean ([3]; single oral dose 2 mg, 32 to 40 h): BCL
Urine Conc., mean ([3]; single oral dose 2 mg, 40 to 48 h): BCL
Urine Conc., mean ([3]; single oral dose 10 mg, 16 to 24 h): 1004 nM
Urine Conc., mean ([3]; single oral dose 10 mg, 40 to 48 h): BCL

From US20250381180A1, “METHODS OF TREATING OR PREVENTING OVERACTIVE BLADDER SYNDROME” (Purdue Pharma L.P., priority 2022, published 2025)
